{
  "source": "patent US20160220518A1",
  "about": "(iCeutica, Inc., priority 2009, published 2016)",
  "origin": "cited, not measured here",
  "settings": "in vivo",
  "data": [
    {"smiles": "COc1ccc2cc([C@H](C)C(=O)O)ccc2c1", "note": "[naproxen]", "values": [
      {"measurement": "excreted in the urine as 6-0-desmethyl naproxen", "result": "< 1", "unit": "%"},
      {"measurement": "excreted in the urine as naproxen", "result": "< 1", "unit": "%"},
      {"measurement": "fraction of any dose excreted in the urine", "result": "Approximately 95%"},
      {"measurement": "fraction of the administered dose excreted in the feces", "result": "≤ 3", "unit": "%"}
    ]}
  ]
}
